Laboratory results published in ChEMBL document CHEMBL3885861, “Open TG-GATES”.

Organism: Rattus norvegicus
Test: Open TG-GATES - Regimen: Daily Repeat
Format: toxicity, organism-based, Sprague-Dawley
Set-up: regimen Daily Repeat, gender Male, age 6 weeks
Conditions: in vivo, po, 50 mg/kg, route gavage, dose level Low; for APTT / Bas / Eos / Fbg / Hb / Ht / Lym / MCH / MCHC / MCV / Mono / Neu / PT / Plat / RBC / Ret / WBC: tissue Blood; for KIDNEY_L / KIDNEY_R / KIDNEY_TOTAL: tissue Kidney; for LIVER: tissue Liver; for A/G / ALP / ALT / AST / BUN / CRE / Ca / Cl / DBIL / GLC / IP / K / LDH / Na / PL / RALB / TBIL / TC / TG / TP / gamma-GTP: tissue Plasma

Which results are given for `CN1C(=O)OC(C)(C)C1=O` [TRIMETHADIONE]?
TERMINAL_BW (72 h, time 3 day): 239.4 g; APTT (72 h, time 3 day): 17.8 s; Bas (72 h, time 3 day): 0%; Eos (72 h, time 3 day): 1%; Fbg (72 h, time 3 day): 290.4 mg/dL; Hb (72 h, time 3 day): 13.8 g/dL; Ht (72 h, time 3 day): 41%; Lym (72 h, time 3 day): 74.8%; MCH (72 h, time 3 day): 21.2 pg; MCHC (72 h, time 3 day): 33.6%; MCV (72 h, time 3 day): 63.2 fL; Mono (72 h, time 3 day): 3%; Neu (72 h, time 3 day): 20.8%; PT (72 h, time 3 day): 13 s; Plat (72 h, time 3 day): 127.3 x10_4/uL; RBC (72 h, time 3 day): 649 x10_4/ul; Ret (72 h, time 3 day): 6.9%; WBC (72 h, time 3 day): 101.6 x10_2/uL; KIDNEY_L (72 h, time 3 day): 1 g; KIDNEY_R (72 h, time 3 day): 1 g; KIDNEY_TOTAL (72 h, time 3 day): 2 g; LIVER (72 h, time 3 day): 11.2 g; A/G (72 h, time 3 day): 0.9; ALP (72 h, time 3 day): 1701.8 IU/L; ALT (72 h, time 3 day): 40.4 IU/L; AST (72 h, time 3 day): 73.8 IU/L; BUN (72 h, time 3 day): 15.2 mg/dL; CRE (72 h, time 3 day): 0.2 mg/dL; Ca (72 h, time 3 day): 11.1 mg/dL; Cl (72 h, time 3 day): 106.4 meq/L; DBIL (72 h, time 3 day): 0.008 mg/dL; GLC (72 h, time 3 day): 178.4 mg/dL; IP (72 h, time 3 day): 6.8 mg/dL; K (72 h, time 3 day): 4.7 meq/L; LDH (72 h, time 3 day): 87.2 IU/L; Na (72 h, time 3 day): 141.6 meq/L; PL (72 h, time 3 day): 166 mg/dL; RALB (72 h, time 3 day): 2.6 g/dL; TBIL (72 h, time 3 day): 0.05 mg/dL; TC (72 h, time 3 day): 83 mg/dL; TG (72 h, time 3 day): 123.8 mg/dL; TP (72 h, time 3 day): 5.7 g/dL; gamma-GTP (72 h, time 3 day): 1 IU/L; TERMINAL_BW ([…], time 7 day): 283.2 g; TERMINAL_BW ([…], time 14 day): 331.1 g; TERMINAL_BW ([…], time 28 day): 426.4 g; APTT ([…], time 7 day): 18.9 s; Bas ([…], time 7 day): 0%; Eos ([…], time 7 day): 1.2%; Fbg ([…], time 7 day): 255.8 mg/dL; Hb ([…], time 7 day): 13.9 g/dL; Ht ([…], time 7 day): 41.1%; Lym ([…], time 7 day): 74.6%; MCH ([…], time 7 day): 21.1 pg; MCHC ([…], time 7 day): 33.9%; MCV ([…], time 7 day): 62.2 fL; Mono ([…], time 7 day): 2.2%; Neu ([…], time 7 day): 21.8%; PT ([…], time 7 day): 13.7 s; Plat ([…], time 7 day): 137 x10_4/uL; RBC ([…], time 7 day): 660.4 x10_4/ul; Ret ([…], time 7 day): 5.5%; WBC ([…], time 7 day): 92.6 x10_2/uL; APTT ([…], time 14 day): 21.8 s; Bas ([…], time 14 day): 0.2%; Eos ([…], time 14 day): 1%; Fbg ([…], time 14 day): 271.2 mg/dL; Hb ([…], time 14 day): 14.9 g/dL; Ht ([…], time 14 day): 43.7%; Lym ([…], time 14 day): 76%; MCH ([…], time 14 day): 20.9 pg; MCHC ([…], time 14 day): 34.2%; MCV ([…], time 14 day): 61.3 fL; Mono ([…], time 14 day): 2.2%; Neu ([…], time 14 day): 20.6%; PT ([…], time 14 day): 13.4 s; Plat ([…], time 14 day): 118 x10_4/uL; RBC ([…], time 14 day): 712.8 x10_4/ul; Ret ([…], time 14 day): 4.1%; WBC ([…], time 14 day): 104.6 x10_2/uL; APTT ([…], time 28 day): 19.5 s; Bas ([…], time 28 day): 0.4%; Eos ([…], time 28 day): 1.4%; Fbg ([…], time 28 day): 257.6 mg/dL; Hb ([…], time 28 day): 15.7 g/dL; Ht ([…], time 28 day): 45.3%; Lym ([…], time 28 day): 80.2%; MCH ([…], time 28 day): 19.8 pg; MCHC ([…], time 28 day): 34.6%; MCV ([…], time 28 day): 57.3 fL; Mono ([…], time 28 day): 2%; Neu ([…], time 28 day): 15.4%; PT ([…], time 28 day): 13.9 s; Plat ([…], time 28 day): 108.7 x10_4/uL; RBC ([…], time 28 day): 789.4 x10_4/ul; Ret ([…], time 28 day): 2.4%; WBC ([…], time 28 day): 118.6 x10_2/uL; KIDNEY_L ([…], time 7 day): 1.2 g; KIDNEY_R ([…], time 7 day): 1.2 g; KIDNEY_TOTAL ([…], time 7 day): 2.4 g; KIDNEY_L ([…], time 14 day): 1.3 g; KIDNEY_R ([…], time 14 day): 1.3 g; KIDNEY_TOTAL ([…], time 14 day): 2.6 g; KIDNEY_L ([…], time 28 day): 1.5 g; KIDNEY_R ([…], time 28 day): 1.5 g; KIDNEY_TOTAL ([…], time 28 day): 3 g; LIVER ([…], time 7 day): 13.1 g; LIVER ([…], time 14 day): 13.8 g; LIVER ([…], time 28 day): 16.2 g; A/G ([…], time 7 day): 0.8; ALP ([…], time 7 day): 1932.2 IU/L; ALT ([…], time 7 day): 44.4 IU/L; AST ([…], time 7 day): 76.8 IU/L; BUN ([…], time 7 day): 16.6 mg/dL; CRE ([…], time 7 day): 0.2 mg/dL; Ca ([…], time 7 day): 10.9 mg/dL; Cl ([…], time 7 day): 105.4 meq/L; DBIL ([…], time 7 day): 0.006 mg/dL; GLC ([…], time 7 day): 187.8 mg/dL; IP ([…], time 7 day): 7 mg/dL; K ([…], time 7 day): 4.2 meq/L; LDH ([…], time 7 day): 79.6 IU/L; Na ([…], time 7 day): 143 meq/L; PL ([…], time 7 day): 158 mg/dL; RALB ([…], time 7 day): 2.6 g/dL; TBIL ([…], time 7 day): 0.046 mg/dL; TC ([…], time 7 day): 75 mg/dL; TG ([…], time 7 day): 113.6 mg/dL; TP ([…], time 7 day): 5.8 g/dL; gamma-GTP ([…], time 7 day): 1.2 IU/L; A/G ([…], time 14 day): 0.8; ALP ([…], time 14 day): 1421.4 IU/L; ALT ([…], time 14 day): 40.4 IU/L; AST ([…], time 14 day): 71.2 IU/L; BUN ([…], time 14 day): 16.2 mg/dL; CRE ([…], time 14 day): 0.2 mg/dL; Ca ([…], time 14 day): 10.7 mg/dL; Cl ([…], time 14 day): 105.2 meq/L; DBIL ([…], time 14 day): 0.002 mg/dL; GLC ([…], time 14 day): 182.6 mg/dL; IP ([…], time 14 day): 6.9 mg/dL; K ([…], time 14 day): 4.3 meq/L; LDH ([…], time 14 day): 131.4 IU/L; Na ([…], time 14 day): 144.4 meq/L; PL ([…], time 14 day): 159 mg/dL; RALB ([…], time 14 day): 2.7 g/dL; TBIL ([…], time 14 day): 0.04 mg/dL; TC ([…], time 14 day): 72.4 mg/dL; TG ([…], time 14 day): 112.8 mg/dL; TP ([…], time 14 day): 6 g/dL; gamma-GTP ([…], time 14 day): 1 IU/L; A/G ([…], time 28 day): 0.8; ALP ([…], time 28 day): 1126.4 IU/L; ALT ([…], time 28 day): 33.8 IU/L; AST ([…], time 28 day): 63.8 IU/L; BUN ([…], time 28 day): 16.6 mg/dL; CRE ([…], time 28 day): 0.3 mg/dL; Ca ([…], time 28 day): 10.7 mg/dL; Cl ([…], time 28 day): 104 meq/L; DBIL ([…], time 28 day): 0.006 mg/dL; GLC ([…], time 28 day): 180.2 mg/dL; IP ([…], time 28 day): 5.3 mg/dL; K ([…], time 28 day): 4.3 meq/L; LDH ([…], time 28 day): 69.8 IU/L; Na ([…], time 28 day): 142 meq/L; PL ([…], time 28 day): 162 mg/dL; RALB ([…], time 28 day): 2.8 g/dL; TBIL ([…], time 28 day): 0.042 mg/dL; TC ([…], time 28 day): 73.6 mg/dL; TG ([…], time 28 day): 186.6 mg/dL; TP ([…], time 28 day): 6.2 g/dL; gamma-GTP ([…], time 28 day): 1.2 IU/L
